Test results from publication PMC9502404, “The Strong Anti-Tumor Effect of Smp24 in Lung Adenocarcinoma A549 Cells Depends on Its Induction of Mitochondrial Dysfunctions and ROS Accumulation” (Toxins, 2022).
Where no end group is shown, it is not given here.

Columns and labels:
A549 cells = experiment: MTT cell viability and proliferation assay; type: cell-based, human; details: Smp24 1.25-20 μM, 12, 24 and 48 h tested, time of the IC50 not stated, triplicate, consistent with ref 10
Description: Cellular viability was analyzed via MTT method as reported in our previous study. Briefly, A549 cells (1 × 10^4 cells/well) were cultured in 96-well plates and treated with a gradient concentration of Smp24 (1.25–20 μM) at different time intervals (12, 24, and 48 h). A549 cells were pre-incubated with different inhibitors including 40 μΜ Nec-1, 40 μM Z-DEVD-FMK, 40 μM Z-VAD-FMK, and 2 mM NAC for 30 min before 5 μM Smp24 was incubated with the cells for 12 h to investigate the responsibility of different signaling pathways in the cytotoxic effects of Smp24. After incubation, 10 µL MTT (5 mg/mL) was then added and incubated for 4 h at 37 °C in the dark. Subsequently, 200 µL DMSO was applied into each well after discarding the cell medium, and the cell viability was estimated by calculating the absorbance value at 490 nm via a microplate reader (Tecan Company, Männedorf, Switzerland). The experiments were performed in triplicate.

MRC-5 = experiment: MTT cell viability assay, normal cells; type: cell-based; details: time not stated, MRC-5 not described in methods

## IWSFLIKAATKLLPSLFGGGKKDS [Smp24]
A549 cells
  IC50: ~4.06 µM
MRC-5
  IC50: ~14.7 µM
